Data: patent US10633570B2, “Anti-ice nucleation activator” (THE SCHOOL CORPORATION KANSAI UNIVERSITY, priority 2015, dated 2020)

Columns and labels:
Type in all cases: physicochemical
[1] = Anti-ice nucleation active performance (supercooling acceleration), droplet-freezing method of Vali, with silver iodide; settings: 100 μL mixed with 900 μL silver iodide 1.0 mg/mL, average of three tests; for Anti-ice nucleation activity level (ΔT50 = BlankT50 − SampleT50): purine base aqueous solution 1.0 mg/mL, cooling 1.0° C./min
Protocol: Nine hundred microliters of an aqueous solution was prepared by dissolving silver iodide (produced by Wako Pure Chemical Industries, Ltd.) in ultra-pure water to a silver iodide concentration of 1.0 mg/mL.
(§1) A blank sample was prepared by mixing 100 μL of ultra-pure water with 900 μL of the aqueous solution in which silver iodide was dissolved.
(§2) The anti-ice nucleation active performance (supercooling acceleration performance) was measured by using the droplet-freezing method of Vali. More specifically, in accordance with the droplet-freezing method of Vali (FIG. 3), an aluminum film was placed on the copper plate of a cold plate chiller (CoolAce CCA-1000, Eyela), and the film was coated with a silicone oil suspension diluted with acetone and chloroform (a solution of acetone:chloroform=1:2). Then, each sample for evaluation or the blank sample was dropped (10 μL each) on 30 points of the surface, the temperature was decreased at a rate of 1.0° C./min, and the temperature at which 50% of the 30 droplets were frozen was considered to be T50.
(§3) The droplet-freezing temperature of each sample was referred to as SampleT50, and the droplet-freezing temperature of the blank sample was referred to as BlankT50. Then, the anti-ice nucleation activity level ΔT50 (° C.) was calculated by the following formula: Formula: ΔT50 (° C.)=BlankT50−SampleT50
Nine hundred microliters of an aqueous solution was prepared by dissolving silver iodide in ultra-pure water to a silver iodide concentration of 1.0 mg/mL.
as §1
(§4) The results are average values of the results of the test performed three times.
as §1, §4

[2] = Anti-ice nucleation activity test with respect to biological material (beef liver), droplet-freezing method of Vali; settings: final concentration 0.1 mg/mL, 10 μL dropped on 1 mm x 1 mm x 1 mm beef liver; blank ultra-pure water; average of three tests
Protocol: as §2
as §3, with “C.)=BlankT50−SampleT50 […]” for “C.)=BlankT50−SampleT50”
The anti-ice nucleation active performance (supercooling acceleration performance) was measured by using a method similar to the droplet-freezing method of Vali described in Test Example 1. […]

Pseudomonas fluorescens = assay: Anti-ice nucleation active performance, droplet-freezing method of Vali, with Pseudomonas fluorescens as ice nucleation active substance; settings: Example 1 solution (1.0 mg/mL); Pseudomonas fluorescens in place of silver iodide
Protocol: The anti-ice nucleation active performance (supercooling acceleration performance) was measured by using the droplet-freezing method of Vali. More specifically, in accordance with the droplet-freezing method of Vali (FIG. 3), an aluminum film was placed on the copper plate of a cold plate chiller (CoolAce CCA-1000, Eyela), and the film was coated with a silicone oil suspension diluted with acetone and chloroform (a solution of acetone:chloroform=1:2). […]
as §3
A sample for evaluation of Example 1 was prepared in a manner similar to that described in Test Example 1, except that Pseudomonas fluorescens, which is the Pseudomonas bacterium, was used in place of silver iodide, which is an ice nucleation active substance. The anti-ice nucleation active performance (supercooling acceleration performance) was measured by using a test method similar to that described in Test Example 1.

[3] = adenine concentration series 0.1-6.0 (mM) per Example
[4] = polydeoxyadenylic acid with 6, 9 or 12 adenine bases, 1.0 mg/mL in TE buffer

| Compound | Anti-ice nucleation activity level (ΔT50) [1, 3] | Anti-ice nucleation activity level (ΔT50 = BlankT50 − SampleT50) [1] | further results |
| --- | --- | --- | --- |
| Nc1ncnc2nc[nH]c12 [Example 10, adenine] | 4.3 °C | – | – |
| Nc1ncnc2nc[nH]c12 [Example 14, adenine] | 7.2 °C | – | – |
| Nc1ncnc2nc[nH]c12 [Example 12, adenine] | 7.8 °C | – | – |
| Nc1ncnc2nc[nH]c12 [Example 13, adenine] | 6.7 °C | – | – |
| Nc1ncnc2nc[nH]c12 [Example 1, adenine] | 9.2 °C | 9.2 °C | Anti-ice nucleation activity level with respect to beef liver [2]: 0.9 °C; Anti-ice nucleation active performance (ΔT50) (Pseudomonas fluorescens): 1.0 °C |
| polydeoxyadenylic acid [Example 17] | – | – | Anti-ice nucleation activity level (ΔT50) [1, 4]: 1.60 °C |
| O=c1[nH]c(=O)c2[nH]c(=O)[nH]c2[nH]1 [Example 6, Uric acid] | – | 1.8 °C | – |
| Nc1ncnc2nc[nH]c12 [Example 8, adenine] | 1.7 °C | – | – |
| Nc1nc2nc[nH]c2c(=O)[nH]1 [Example 2, Guanine] | – | 1.0 °C | – |
| Cn1c(=O)c2c(ncn2C)n(C)c1=O [Example 5, Caffeine] | – | 1.3 °C | Anti-ice nucleation activity level with respect to beef liver [2]: 0.7 °C |
| Cn1c(=O)c2[nH]cnc2n(C)c1=O [Example 7, Theophylline] | – | 2.0 °C | – |
| polydeoxyadenylic acid [Example 16] | – | – | Anti-ice nucleation activity level (ΔT50) [1, 4]: 1.43 °C |
| Nc1ncnc2nc[nH]c12 [Example 9, adenine] | 2.3 °C | – | – |
| polydeoxyadenylic acid [Example 15] | – | – | Anti-ice nucleation activity level (ΔT50) [1, 4]: 1.26 °C |
| Cn1cnc2c1c(=O)[nH]c(=O)n2C [Example 4, Theobromine] | – | 1.2 °C | – |
| Nc1ncnc2nc[nH]c12 [Example 11, adenine] | 4.9 °C | – | – |
| O=c1[nH]cnc2nc[nH]c12 [Example 3, Hypoxanthine] | – | 2.1 °C | – |
